Data published in publication PMC11915030 (ACS Pharmacology & Translational Science, 2025).
Like-named read-outs stand apart in the source and are kept apart here.

Assays:
[1] = biological target: T1, MOR (Homo sapiens, UniProt P35372); test: cell-based; details: for Emax: read-out: Emax for β-arrestin recruitment
Experimental: The β-Arrestin recruitment assay was performed as previously described.[41] Briefly, the PathHunter β-Arrestin assay was used to monitor GPCR activation through β-arrestin recruitment. This assay also utilized EFC technology, with β-Gal as the reporter enzyme. In this system, the Enzyme Acceptor (EA) fragment was fused to β-arrestin, and the ProLink (PK) fragment was fused to the GPCR of interest. Upon GPCR activation, EA and PK complementation restored β-Gal activity, generating a chemiluminescent signal that was measured using PathHunter Detection Reagents.

[2] = biological target: T1, MOR; test: cell-based; details: for Emax: read-out: Emax for G-protein activation
Experimental: The G-protein pathway activation was performed as previously described.[40] Briefly, the G-protein pathway activation was measured using HitHunter cAMP assays, which quantify cAMP, a secondary messenger involved in G-protein-coupled receptor (GPCR) signaling. This assay employed Enzyme Fragment Complementation (EFC) technology with β-galactosidase (β-Gal) as the reporter enzyme. Upon activation, β-Gal produces a chemiluminescent signal that is detected using a microplate reader, providing a quantitative measure of G-protein pathway activity.

[3] = test system: LPS-activated THP-1 cells; test: Inflammatory cytokine assay, LPS-activated THP-1 cells (ELISA); details: LPS 0.1 μg/mL, 24 h, three concentrations
Experimental: This assay evaluated the impact of various compounds on cytokine production in THP1 cells stimulated with LPS, as previously described with some modifications.[35] Following treatment, key cytokines were measured to enhance our understanding of the modulatory effects of these compounds on inflammation.
The cells were cultured for 24 h at 37 °C and 5% CO2. After the culture period, the cell free supernatants were harvested and stored at −80 °C until cytokine measurement.
The cytokines IL-1beta, IL-6 and TNF were measured using an ELISA Development Kit (R&D, biotechne, Wiesbaden, Germany) according to the recommendations of the manufacturer.

[4] = design: method as in doi:10.3390/scipharm88020025, PMID 17435173, PMID 24712707; details: water or methanol, cited from earlier work
[5] = test system: nonactivated THP-1 cells; test: Inflammatory cytokine assay, nonactivated THP-1 cells (ELISA); details: 24 h
[6] = biological target: T2, MOR expressed in human embryonic kidney 293 (HEK-293) cells (Homo sapiens, UniProt P35372); test: In vitro radioligand competition binding assay against [3H]DAMGO (Eurofins)
T2 construct: host or cells: HEK-293
Experimental: The Ki values were determined from the measured IC50 values using the Cheng-Prusoff equation,[39] Ki = IC50/[1 + ([L]/Kd)], where [L] and Kd are the concentration and binding affinity of the radiolabeled ligand in the assay, respectively.

[7] = compared with the reported EC50 of morphine

T2 sequence (P35372 whole entry): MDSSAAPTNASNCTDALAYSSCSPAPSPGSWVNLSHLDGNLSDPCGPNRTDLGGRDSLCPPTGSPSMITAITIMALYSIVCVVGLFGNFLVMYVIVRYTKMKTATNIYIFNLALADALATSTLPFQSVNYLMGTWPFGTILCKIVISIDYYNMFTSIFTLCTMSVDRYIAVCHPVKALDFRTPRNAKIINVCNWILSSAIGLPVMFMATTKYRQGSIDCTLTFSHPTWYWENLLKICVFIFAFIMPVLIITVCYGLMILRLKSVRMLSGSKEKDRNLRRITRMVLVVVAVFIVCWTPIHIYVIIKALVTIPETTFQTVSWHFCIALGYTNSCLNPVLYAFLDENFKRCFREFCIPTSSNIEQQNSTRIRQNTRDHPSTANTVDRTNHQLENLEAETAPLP
T1 sequence (P35372 whole entry, the tested form may be a part): as the sequence (P35372 whole entry) above

Compound	Emax [1] [%]	Emax [2] [%]	effect on LPS-induced TNF release [3]	hydrolysis to 4-methylaminoantipyrine (4-MAA) ([4]; acidic conditions)	hydrolysis to 4-methylaminoantipyrine (4-MAA) ([4]; neutral pH)	induction of pro-inflammatory cytokines (TNF, IL-1beta, IL-6) [5]	fold difference to morphine, β-arrestin recruitment [1, 7] [fold]	fold difference to morphine, G-protein activation [2, 7] [fold]	fold less potent against MOR than morphine (Ki) ([6]; compared with the reported Ki of morphine)	IC50 ([6]; read-out: half-maximal inhibitory concentration (IC50), MOR binding) [nM]	Ki ([6]; read-out: inhibitory constant (Ki), MOR binding) [nM]
COc1ccsc1CNCC[C@@]1(c2ccccn2)CCOC2(CCCC2)C1 [TRV-130, oliceridine, reference compound]	7.9	100									
Cc1c(N(C)CS(=O)(=O)O)c(=O)n(-c2ccccc2)n1C [metamizole, metamizole sodium]			dose-dependent and significant upregulation	more rapidly	slowly	did not see any induction					
CN1CC[C@]23c4c5ccc(O)c4O[C@H]2[C@@H](O)C=C[C@H]3[C@H]1C5 [morphine]			no significant effect			did not see any induction					
Cc1c(N(C)Cc2cc3c4c(c2O)O[C@H]2[C@@H](O)C=C[C@H]5[C@@H](C3)N(C)CC[C@@]452)c(=O)n(-c2ccccc2)n1C [metamorphine]	70	97	no significant effect			did not see any induction	8	22	about 8 fold	7.3	3
